Bounds are passed on as bounds.

The IC50 is the concentration that inhibits the measured activity by half.

In assay [1] the target is Cytochrome P450 2D6 (Homo sapiens, UniProt P10635). In words: Inhibition of CYP2D6 (unknown origin). The assay is classed as ADME.
Assay [2] addresses T1, Potassium voltage-gated channel subfamily KQT member 1 (Homo sapiens, UniProt P51787).
T1 sequence (P51787 whole entry): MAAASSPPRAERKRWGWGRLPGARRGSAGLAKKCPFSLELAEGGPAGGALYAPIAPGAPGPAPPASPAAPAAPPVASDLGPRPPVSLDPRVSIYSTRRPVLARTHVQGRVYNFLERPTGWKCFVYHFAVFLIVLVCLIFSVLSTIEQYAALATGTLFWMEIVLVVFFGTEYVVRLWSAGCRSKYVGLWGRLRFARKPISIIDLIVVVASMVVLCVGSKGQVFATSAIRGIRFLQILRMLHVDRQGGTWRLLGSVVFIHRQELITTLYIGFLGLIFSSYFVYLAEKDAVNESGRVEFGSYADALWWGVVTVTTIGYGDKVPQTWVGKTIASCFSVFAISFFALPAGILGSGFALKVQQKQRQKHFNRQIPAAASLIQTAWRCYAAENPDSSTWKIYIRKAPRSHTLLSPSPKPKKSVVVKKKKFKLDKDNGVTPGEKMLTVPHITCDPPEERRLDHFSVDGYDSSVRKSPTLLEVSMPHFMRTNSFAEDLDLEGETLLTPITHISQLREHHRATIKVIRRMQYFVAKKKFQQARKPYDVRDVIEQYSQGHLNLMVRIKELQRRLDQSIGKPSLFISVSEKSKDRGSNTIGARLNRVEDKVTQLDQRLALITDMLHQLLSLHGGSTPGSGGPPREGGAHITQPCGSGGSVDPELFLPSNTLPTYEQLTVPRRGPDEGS
Description: Antagonist activity at recombinant hKCNQ1/hmink expressed in CHO-K1 cells by Electrophysiology. Type of assay: toxicity, cell-based.

Sequence of Cytochrome P450 2D6 (P10635 whole entry): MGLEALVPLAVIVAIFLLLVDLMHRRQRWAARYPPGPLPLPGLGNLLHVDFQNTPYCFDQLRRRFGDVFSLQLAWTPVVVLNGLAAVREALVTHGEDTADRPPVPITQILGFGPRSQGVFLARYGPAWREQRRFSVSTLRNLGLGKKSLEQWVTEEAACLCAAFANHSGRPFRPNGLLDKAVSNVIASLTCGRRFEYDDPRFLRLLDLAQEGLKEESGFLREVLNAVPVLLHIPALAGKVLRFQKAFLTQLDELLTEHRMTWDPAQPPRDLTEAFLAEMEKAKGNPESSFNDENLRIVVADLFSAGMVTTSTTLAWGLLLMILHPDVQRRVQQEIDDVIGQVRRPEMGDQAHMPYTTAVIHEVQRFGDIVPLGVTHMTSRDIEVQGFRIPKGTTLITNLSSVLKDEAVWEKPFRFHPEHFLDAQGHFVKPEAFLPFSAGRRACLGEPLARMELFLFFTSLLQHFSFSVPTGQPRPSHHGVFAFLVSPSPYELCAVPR

As for `CC1CCNc2c(C(=O)NC/C=C/S(C)(=O)=O)cccc21` (configuration not stated), the IC50 in assay [1] and in assay [2] was over 100 µM throughout.

The values are drawn from ChEMBL document CHEMBL6071156 (Eur J Med Chem, 2024).
